Assays:
[1] = Solubility in organic solvents; format: physicochemical; details: for solubility (in words): compared with methanol, ethanol and acetonitrile; for solubility: organic solvent or mixture; for solubility in organic solvents (in words): all organic solvents

With `c1cc(-c2cccc3nc(-c4nc5cccc(-c6cccc7ncoc67)c5o4)oc23)c2ocnc2c1` [Compound 13, 7,7′:2′,2″:7′″,7′″-Quaterbenzoxazole] the “solubility (in words)” value ([1]; in chloroform) was “improved”, the “solubility (in words)” value ([1]; in dimethylformide) was “improved” and the solubility ([1]; in acetonitrile) was < 1 µM. The solubility ([1]; in ethanol) was < 1 µM, the solubility ([1]; in methanol) was < 1 µM and the melting point was 358 to 362 °C.
In the case of `c1cc2c3oc(nc3c1)-c1cccc3nc(oc13)-c1cccc3nc(oc13)-c1cccc3nc-2oc13` [Compound 5, Cyclo-2,7′:2′,7″:2′″,7′″:2′″,7-quaterbenzoxazole], the “solubility in organic solvents (in words)” value [1] is reported as “very limited solubility”.
In the case of `c1cc2c3[nH]c(nc3c1)-c1cccc3nc([nH]c13)-c1cccc3nc([nH]c13)-c1cccc3nc-2[nH]c13` [Compound 8, Cyclo-2,4′:2′,7″:2″4′″:2′″,7-quaterbenzimidazole], the “solubility in organic solvents (in words)” value [1] is reported as “even lower solubility in organic solvents than compound (5)”.
